Results: patent US4001315A, “Prostaglandin derivatives” (American Home Products Corporation, priority 1975, dated 1977)

Key:
[1] = Hypotension in the anesthetized dog by the intravenous route; assay type: in vivo
Experimental: In the use of the compounds of the invention to produce hypotensive effects in warm-blooded animals, administration by the injectable route is preferred, preferably the intravenous route.
Thus in the anesthetized dog by the intravenous route the dose to produce hypotension is from about 1 mg/kg. to about 200 mg/kg. and preferably from about 10 mg/kg. to about 100 mg/kg. Using this procedure the following results were obtained.

[2] = tested on: bronchoconstricting effects of a standard dose of acetylcholine; test: Bronchodilation by aerosol inhalation in the guinea pig (method of Rosenthale et al.); assay type: in vivo; set-up: dose or concentration left out as unconfirmed
From the text: In using the compounds of the invention to produce bronchodilating effects in warm-blooded animals, they may be administered in a variety of dosage forms: oral, injectable, and aerosol inhalation. Aerosol inhalation is a preferred method because of its rapid onset of action, great potency, and specificity of action. The particular dosage to obtain the bronchodilating effect will vary with the particular compound employed, the particular animal involved, and the degree of bronchodilation desired. […] The bronchodilation produced upon aerosol inhalation can be observed by the method of Rosenthale et al., J. Pharmacol. Exp. Ther., 178, 541 (1971). Using this procedure the following result was obtained.

CCCCC[C@H](O)/C=C/[C@H]1CC[C@](C)(O)[C@@H]1C/C=C\CCCC(=O)O [7-(5α-Hydroxy-2β-[(3S)-3-Hydroxy-Trans-1-Octenyl]-5β-Methyl-1α-Cyclopentyl)-Cis-5-Heptenoic Acid] showed a Δb.p. ([1]; Dose 100 mg/kg.) of -23 mm. Hg.

Work on CCCCC[C@H](O)/C=C/[C@H]1CC[C@@](C)(O)[C@@H]1C/C=C\CCCC(=O)O [7-(5β-Hydroxy-2β-[(3S)-3-Hydroxy-Trans-1-Octenyl]-5α-Methyl-1α-Cyclopentyl)-Cis-5-Heptenoic Acid] yielded a Δb.p. ([1]; Dose 100 mg/kg.) of -19 mm. Hg.

For C#CC(O)(/C=C/[C@H]1CCC(O)(C#C)[C@@H]1C/C=C\CCCC(=O)O)CCCCC (stereo partly drawn) [7-[(5RS)-5-Ethynyl-2β-((3RS)-3-Ethynyl-3-Hydroxy-Trans-1-Octenyl)-5-Hydroxy-1α-Cyclopentyl]-Cis-5-Heptenoic Acid], the Δb.p. ([1]; Dose 100 mg/kg.) was -26 mm. Hg and the “Percent Inhibition of the bronchoconstricting effects of a standard dose of acetylcholine” value [2] was 48%.

Work on C#CC1(O)CC[C@H](/C=C/[C@@H](O)CCCCC)[C@H]1C/C=C\CCCC(=O)O (stereo partly drawn) [7-[(5RS)-5-Ethynyl-5-Hydroxy-2β-((3S)-3-Hydroxy-Trans-1-Octenyl)-1α-Cyclopentyl]-Cis-5-Heptenoic Acid] yielded a Δb.p. ([1]; Dose 10 mg/kg.) of -40 mm. Hg.
